Measurements taken from patent publication US20070037751A1, “Uses of secretagogues like ghrelin in cancer cachexia and for stimulating appetite” (priority 2003, published 2007).
“Also recorded” adds a separate entry of the source.

Legend:
growth hormone = test: Plasma growth hormone before and after subcutaneous ghrelin in a cancer cachexia patient (Example 4); format: in vivo, human; settings: before and after the two subcutaneous injections, 0.8 to 1.5 micrograms/kg twice daily, one patient
Description: (§1) The patient was treated with subcutaneous injections of 0.8 to 1.5 micrograms/kg ghrelin twice daily for 4 weeks. The injections were taken before meals.
Pharmacokinetic and pharmacodynamic assessment was performed at day 1 and 2 by blood sampling before and after each injection and measurement of plasma levels of growth hormone and active and total ghrelin.

[1] = Clinical follow-up of a cancer cachexia patient treated with ghrelin (Example 4); format: in vivo, human
Description: as §1
The patient was followed weekly by standard laboratory tests, Cachexia/anorexia and quality of life questionnaires, body-weight, body-composition analysis (DEXA-scan) and chest-x-ray or thorax-CT among others.

[2] = Plasma ghrelin after subcutaneous bolus injection of ghrelin in mice (Example 6); format: in vivo
Description: 6+6 mice received 12 or 24 nmol of ghrelin by a subcutaneous bolus injection in the neck (corresponding to 400 and 800 nmol kg^−1, respectively). […] Immunoactive ghrelin was measured in 20 μl plasma with a radioimmunoassay (RIA) that uses an antiserum raised against acylated human ghrelin (Phoenix Pharmaceuticals); ^125I-labelled ghrelin-28 was used as a tracer a rat ghrelin-28 as standard. […] Plasma concentrations were expressed as pmol equivalents of rat ghrelin-28 per liter. Active (octanoylated) ghrelin was determined in 50 μl plasma using an enzyme linked immunosorbent assay (ELISA) kit (LINCO Research, St. Charles, Mo., USA).

[3] = Daily subcutaneous ghrelin for 8 weeks in gastrectomised and sham-operated mice (Example 7); format: in vivo
Description: Mice were subjected to gastrectomy or to sham operation. Gastrectomy was carried out by resecting the glandular stomach (antrum and fundus), followed by anastomozing the duodenum and the rumen end-to-end. The mortality associated with gastrectomy was 10%. Some of the gastrectomised and sham-operated mice received a subcutaneous dose of ghrelin (12 nmol) daily for 8 weeks. Controls received saline. […] After 8 weeks the mice were killed by decapitation (16-18 h after the last injection). Blood was collected and plasma stored at −20° C. for measurement of ghrelin (see below). Lean tissue was analysed by dual energy x-ray absorptiometry (DXA) (PIXImus, Lunar Corporation, Madison, […]., USA). White adipose tissue (WAT) (mesenteric, retroperitoneal-renal, gonadal and inguinal) and intrascapular brown adipose tissue (BAT) was dissected out and weighed
Measurement of circulating ghrelin: If not otherwise stated, determination of circulating ghrelin was carried out on plasma from animals at sacrifice (end-point analysis). Immunoactive ghrelin was measured in 20 pi plasma with a radioimmunoassay (RIA) that uses an antiserum raised against acylated human ghrelin (Phoenix Pharmaceuticals); ^125I-labelled ghrelin-28 was used as a tracer a rat ghrelin-28 as standard. […] Plasma concentrations were expressed as pmol equivalents of rat ghrelin-28 per liter. Active (octanoylated) ghrelin was determined in 50 μl plasma using an enzyme linked immunosorbent assay (ELISA) kit (LINCO Research, St. Charles, Mo., USA).
Statistical analysis: Values are expressed as means±S.E.M. Differences were analyzed by the student t-test or by one-way analysis of variance (ANOVA), using Bonferroni's multiple comparison test. A p value of less than 0.05 was considered statistically significant.

[4] = Pharmacokinetics of ghrelin formulations after subcutaneous administration in rats (Examples 9 and 10); format: in vivo, Sprague Dawley rats; design: Tmax: dose or concentration left out as unconfirmed; settings: rat
Description: Two different types of liposomes were made containing dipalmitoyl DL-α-phosphatidylcholine (DPPC ) and a mixture of phosphatidylcholin and cholesterol (PC/Chol), respectively. The liposomes were prepared by dissolving and mixing the lipids in chloroform. Chloroform was removed overnight by rotation evaporation, and the resulting lipid film was first striped with ethanol (99,9%) and then left overnight in the rotation evaporator. The multilamellar liposomes were formed by hydration in HEPES-buffer (10 mM HEPES, 50 mM KCl, 1mM NaN3, pH=5,5) for at least 1 h. The hydration temperature was 51° C. (10° C. above the Tm of the phospholipids). Subsequently, the liposomes were sonicated for 30 sec every 10 min during one hour using a tip sonicator. One hundred nanometer unilamellar liposomes were made from the multilamellar liposomes by extrusion through 100 nm polycarbonate filters. Size measurements were performed by dynamic light scattering (DLS) using a Zetasizer 4 (Malvern, UK). Tm were determined by Differential Scanning Caleometry (DSC; MicroCal™ Incorporated). Ghrelin were added approximately 2 h before the administration of the formulation to the animals in doses of 60 μg per 500 μL
Intralipid 30% were purchased from the local Pharmacy on the Danish University Hospital Copenhagen (Rigshospitalet). 1000 mL contain: purified soybean oil 300 g, purified egg phospholipids 12 g, glycerol anhydrous 16.7 g, water for injection q.s. ad 1 000 mL. pH is adjusted with sodium hyroxide to pH approximately 7.5.
Animals: Thirty (30) male Sprague Dawley rats (aged 6-7 weeks; approximately 300 g; Charles River, Germany) were used. Upon arrival at the animal facility, they were housed 3 per cage for one week, and subsequently transferred to individual cages with access to food and water ad libitum.
After one week of singly housing, the rats were ready for experiments and were randomized into 5 weight-matched groups (6 pr. group):
All compounds were administered by subcutaneous administration (0.5 ml/300g rat)
On the experimental day (0800-0930), 15 minute prior to receiving the test dose, a 200 μl blood sample was drawn from the tail vein. At time point 0 a second blood sample was drawn and immediately after rats received an sc injection with test compound according to the groups listed above. Seven more samples were drawn (volume 200 μl) at time points: 15, 30, 45, 60, 90, 120 and 240 minutes post injection according to study outline. The total blood volume drawn was 1800 μl (approx. 10% of total blood volume).
Blood samples were kept on ice until plasma separation could be performed. After centrifugation (4000 rpm for 10 minutes) plasma was transferred to vials/tubes containing 5 μL 1N HCl og 5 μL 2mg/mL solution of Phenylmethylsulfonyl fluoride in isopropanol.
The active (acylated) ghrelin in the plasma samples was measured by use of a RIA assay (Linco Research, Inc) according to the manufactures protocol.

[5] = Clinical follow-up of a cancer cachexia patient treated with ghrelin (Example 4); format: in vivo, human; settings: weekly IV injections, before the subcutaneous treatment
[6] = infusion for 90 minutes, cancer cachexia patients; cited from earlier work
[7] = continuous intravenous infusion for 270 minutes, 5 pmol/kg/min; cited from earlier work
[8] = subcutaneous 0.8 to 1.5 micrograms/kg twice daily for 4 weeks, one patient
[9] = gastrectomised mice, 12 nmol sc daily, 8 weeks
[10] = ghrelin (200 mg/kg) in a buffer

In the case of `CCCCCCCC(=O)OC[C@H](NC(=O)[C@H](CO)NC(=O)CN)C(=O)N[C@@H](Cc1ccccc1)C(=O)N[C@@H](CC(C)C)C(=O)N[C@@H](CO)C(=O)N1CCC[C@H]1C(=O)N[C@@H](CCC(=O)O)C(=O)N[C@@H](Cc1cnc[nH]1)C(=O)N[C@@H](CCC(N)=O)C(=O)N[C@@H](CCCNC(=N)N)C(=O)N[C@H](C(=O)N[C@@H](CCC(N)=O)C(=O)N[C@@H](CCC(N)=O)C(=O)N[C@@H](CCCNC(=N)N)C(=O)N[C@@H](CCCCN)C(=O)N[C@@H](CCC(=O)O)C(=O)N[C@@H](CO)C(=O)N[C@@H](CCCCN)C(=O)N[C@@H](CCCCN)C(=O)N1CCC[C@H]1C(=O)N1CCC[C@H]1C(=O)N[C@@H](C)C(=O)N[C@@H](CCCCN)C(=O)N[C@@H](CC(C)C)C(=O)N[C@@H](CCC(N)=O)C(=O)N1CCC[C@H]1C(=O)N[C@@H](CCCNC(=N)N)C(=O)O)C(C)C` [ghrelin], the “increase in plasma growth hormone levels” value (growth hormone) is reported as “more than 5 fold”, the “tumor progression (CT-scans)” value ([1]; mesothelioma, during the subcutaneous ghrelin treatment, 4 weeks) is reported as “did not progress” and the “body weight and body composition” value ([1]; subcutaneous 0.8 to 1.5 micrograms/kg twice daily before meals for 4 weeks, one patient) is reported as “stable body weight and body composition”. The “ability to eat meals” value [1, 8] was “able to eat full plates of meals and finish these; also recorded: increased objective hunger and ability to eat meals”, the hunger [1, 8] was “did not feel more intensified hunger; also recorded: increased objective hunger” and the adverse effects ([1]; subcutaneous treatment, 4 weeks) was “no significant adverse effects”. The lab values ([1]; subcutaneous treatment, weekly standard laboratory tests) was “did not show a substantial difference”, the “plasma ghrelin 6 h after injection” value ([2]; 12 nmol sc, 6 h) was “still elevated” and the “plasma concentration of active (octanoylated) ghrelin 6 h after injection” value ([2]; 12 nmol sc, 6 h, n=4) was “remained high”. The “plasma concentration of active (octanoylated) ghrelin (ELISA)” value ([2]; 12 nmol sc, n=4) was “greatly elevated”, the “plasma ghrelin concentration (RIA, octanoylated and des-octanoylated)” value ([2]; 12 and 24 nmol sc, n=6 in each group) was “raised” and the “plasma ghrelin concentration 16-18 h after injection” value ([3]; 12 nmol sc daily for 8 weeks, 16-18 h after the last injection) was “elevated”. For the same molecule, the “amount of fat (fat depots)” value [3, 9] was “normalized the fat depots”, the “amount of lean tissue (lean body mass, DXA)” value [3, 9] was “reversed the effect; also recorded: normalized” and the body weight raised [3, 9] was 8%. The “lean body mass, ghrelin versus saline” value ([3]; sham-operated mice, 12 nmol sc daily, 8 weeks) was “no difference”, the “decrease of plasma concentration in the 15 min after the maximum (time point 30 min)” value [4, 10] was “approximately 30%” and the “further decrease of plasma concentration in the following 15 min (time point 45)” value [4, 10] was about 60%. For the same molecule, the “increase in active ghrelin in plasma” value [4, 10] was “approximately 10 fold”, the “plasma level of active ghrelin after 120 min” value [4, 10] was “slightly increased” and the “plasma level of active ghrelin after 240 min” value [4, 10] was “back to basal level”. The Tmax ([4]; male, Sprague Dawley, plasma, sc, ghrelin in a buffer, read-out: time of maximal plasma concentration of ghrelin (converted)) was 15 min, the “response to ghrelin treatment” value [5] was “responded well” and the “increase of food intake” value [6] was 30%. For the same molecule, the food intake [7] was “increase in food intake”.
